Measured values published in PubChem BioAssay (NCI).
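Grown in 96-well plates, cells were treated for 48 hours with each compound at five concentrations. Insufficient inhibition: endpoint recorded as highest concentration tested. TGI: concentration producing complete growth inhibition.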

Experiments:
Assay in all cases: inhibition of tumour cell growth, NCI panel, 48 h
786-0 renal = tested on: 786-0 renal
A498 renal = tested on: A498 renal
A549 NSCLC = tested on: A549 NSCLC
ACHN renal = tested on: ACHN renal
BT-549 breast = tested on: BT-549 breast
CAKI-1 renal = tested on: CAKI-1 renal
CCRF-CEM leukemia = tested on: CCRF-CEM leukemia
COLO 205 colon = tested on: COLO 205 colon
DU-145 prostate = tested on: DU-145 prostate
EKVX NSCLC = tested on: EKVX NSCLC
HCC-2998 colon = tested on: HCC-2998 colon
HCT-116 colon = tested on: HCT-116 colon
HCT-15 colon = tested on: HCT-15 colon
HOP-62 NSCLC = tested on: HOP-62 NSCLC
HOP-92 NSCLC = tested on: HOP-92 NSCLC
HS 578T breast = tested on: HS 578T breast
HT29 colon = tested on: HT29 colon
IGROV1 ovarian = tested on: IGROV1 ovarian
K-562 leukemia = tested on: K-562 leukemia
KM12 colon = tested on: KM12 colon
M14 melanoma = tested on: M14 melanoma
MALME-3M melanoma = tested on: MALME-3M melanoma
MCF7 breast = tested on: MCF7 breast
MDA-MB-231 breast = tested on: MDA-MB-231 breast
MDA-MB-435 = tested on: MDA-MB-435
MDA-N = tested on: MDA-N
MOLT-4 leukemia = tested on: MOLT-4 leukemia
NCI-H226 lung = tested on: NCI-H226 lung
NCI-H23 lung = tested on: NCI-H23 lung
NCI-H460 lung = tested on: NCI-H460 lung
NCI-H522 lung = tested on: NCI-H522 lung
NCI/ADR-RES ovarian = tested on: NCI/ADR-RES ovarian
OVCAR-3 ovarian = tested on: OVCAR-3 ovarian
OVCAR-4 ovarian = tested on: OVCAR-4 ovarian
OVCAR-5 ovarian = tested on: OVCAR-5 ovarian
OVCAR-8 ovarian = tested on: OVCAR-8 ovarian
PC-3 prostate = tested on: PC-3 prostate
RXF 393 renal = tested on: RXF 393 renal
SF-268 CNS = tested on: SF-268 CNS
SF-295 CNS = tested on: SF-295 CNS
SF-539 CNS = tested on: SF-539 CNS
SK-MEL-28 melanoma = tested on: SK-MEL-28 melanoma
SK-MEL-5 melanoma = tested on: SK-MEL-5 melanoma
SK-OV-3 ovarian = tested on: SK-OV-3 ovarian
SN12C renal = tested on: SN12C renal
SNB-19 CNS = tested on: SNB-19 CNS
SNB-75 CNS = tested on: SNB-75 CNS
SR leukemia = tested on: SR leukemia
SW-620 colon = tested on: SW-620 colon
T-47D breast = tested on: T-47D breast
TK-10 renal = tested on: TK-10 renal
U251 CNS = tested on: U251 CNS
UACC-257 melanoma = tested on: UACC-257 melanoma
UACC-62 melanoma = tested on: UACC-62 melanoma
UO-31 renal = tested on: UO-31 renal
LOX IMVI melanoma = tested on: LOX IMVI melanoma
SK-MEL-2 melanoma = tested on: SK-MEL-2 melanoma

CCCC(=O)N1CCN(c2ccc3c(c2)OC(C)O3)CC1 (configuration not stated)
TGI (786-0 renal): > 100 µM
TGI (A498 renal): > 100 µM
TGI (A549 NSCLC): > 100 µM
TGI (ACHN renal): > 100 µM
TGI (BT-549 breast): > 100 µM
TGI (CAKI-1 renal): > 100 µM
TGI (CCRF-CEM leukemia): > 100 µM
TGI (COLO 205 colon): > 100 µM
TGI (DU-145 prostate): > 100 µM
TGI (EKVX NSCLC): > 100 µM
TGI (HCC-2998 colon): > 100 µM
TGI (HCT-116 colon): > 100 µM
TGI (HCT-15 colon): > 100 µM
TGI (HOP-62 NSCLC): > 100 µM
TGI (HOP-92 NSCLC): > 100 µM
TGI (HS 578T breast): > 100 µM
TGI (HT29 colon): > 100 µM
TGI (IGROV1 ovarian): > 100 µM
TGI (K-562 leukemia): > 100 µM
TGI (KM12 colon): > 100 µM
TGI (M14 melanoma): > 100 µM
TGI (MALME-3M melanoma): > 100 µM
TGI (MCF7 breast): > 100 µM
TGI (MDA-MB-231 breast): > 100 µM
TGI (MDA-MB-435): > 100 µM
TGI (MDA-N): > 100 µM
TGI (MOLT-4 leukemia): > 100 µM
TGI (NCI-H226 lung): > 100 µM
TGI (NCI-H23 lung): > 100 µM
TGI (NCI-H460 lung): > 100 µM
TGI (NCI-H522 lung): > 100 µM
TGI (NCI/ADR-RES ovarian): > 100 µM
TGI (OVCAR-3 ovarian): > 100 µM
TGI (OVCAR-4 ovarian): > 100 µM
TGI (OVCAR-5 ovarian): > 100 µM
TGI (OVCAR-8 ovarian): > 100 µM
TGI (PC-3 prostate): > 100 µM
TGI (RXF 393 renal): > 100 µM
TGI (SF-268 CNS): > 100 µM
TGI (SF-295 CNS): > 100 µM
TGI (SF-539 CNS): > 100 µM
TGI (SK-MEL-28 melanoma): > 100 µM
TGI (SK-MEL-5 melanoma): > 100 µM
TGI (SK-OV-3 ovarian): > 100 µM
TGI (SN12C renal): > 100 µM
TGI (SNB-19 CNS): > 100 µM
TGI (SNB-75 CNS): > 100 µM
TGI (SR leukemia): > 100 µM
TGI (SW-620 colon): > 100 µM
TGI (T-47D breast): > 100 µM
TGI (TK-10 renal): > 100 µM
TGI (U251 CNS): > 100 µM
TGI (UACC-257 melanoma): > 100 µM
TGI (UACC-62 melanoma): > 100 µM
TGI (UO-31 renal): > 100 µM

CC(C)C(C/C=C1\CC(CO)(COC(=O)C(C)(C)C)OC1=O)C(C)C (configuration not stated)
TGI (786-0 renal): 14.7 µM
TGI (A498 renal): 28.7 µM
TGI (A549 NSCLC): 16.6 µM
TGI (ACHN renal): 24.4 µM
TGI (BT-549 breast): 24.5 µM
TGI (CAKI-1 renal): 21.7 µM
TGI (CCRF-CEM leukemia): 42.7 µM
TGI (COLO 205 colon): 11.4 µM
TGI (DU-145 prostate): 19.6 µM
TGI (EKVX NSCLC): 24.8 µM
TGI (HCC-2998 colon): 24.8 µM
TGI (HCT-116 colon): 22.7 µM
TGI (HCT-15 colon): 29.8 µM
TGI (HOP-62 NSCLC): 20.4 µM
TGI (HOP-92 NSCLC): 25 µM
TGI (HS 578T breast): 11.8 µM
TGI (HT29 colon): 49.6 µM
TGI (IGROV1 ovarian): 29.4 µM
TGI (K-562 leukemia): 44.9 µM
TGI (KM12 colon): 28.2 µM
TGI (LOX IMVI melanoma): 17.7 µM
TGI (M14 melanoma): 29.8 µM
TGI (MALME-3M melanoma): 23.5 µM
TGI (MCF7 breast): 37.6 µM
TGI (MDA-MB-231 breast): 21.7 µM
TGI (MDA-MB-435): 25.3 µM
TGI (MDA-N): 17.6 µM
TGI (MOLT-4 leukemia): 25 µM
TGI (NCI-H226 lung): 19.8 µM
TGI (NCI-H23 lung): 19.7 µM
TGI (NCI-H460 lung): 31 µM
TGI (NCI-H522 lung): 29 µM
TGI (NCI/ADR-RES ovarian): 32.4 µM
TGI (OVCAR-3 ovarian): 26.4 µM
TGI (OVCAR-4 ovarian): 31.9 µM
TGI (OVCAR-5 ovarian): 25.4 µM
TGI (OVCAR-8 ovarian): 31.1 µM
TGI (PC-3 prostate): 20.9 µM
TGI (RXF 393 renal): 33.5 µM
TGI (SF-268 CNS): 27.7 µM
TGI (SF-295 CNS): 18.1 µM
TGI (SF-539 CNS): 20.9 µM
TGI (SK-MEL-2 melanoma): 39.5 µM
TGI (SK-MEL-28 melanoma): 26.4 µM
TGI (SK-MEL-5 melanoma): 20 µM
TGI (SK-OV-3 ovarian): 29 µM
TGI (SN12C renal): 19.8 µM
TGI (SNB-19 CNS): 26 µM
TGI (SNB-75 CNS): 15.2 µM
TGI (SR leukemia): > 100 µM
TGI (SW-620 colon): 17.1 µM
TGI (T-47D breast): 34.9 µM
TGI (TK-10 renal): 21.1 µM
TGI (U251 CNS): 29.8 µM
TGI (UACC-257 melanoma): 32.6 µM
TGI (UACC-62 melanoma): 31.3 µM
TGI (UO-31 renal): 18.3 µM
